Measurements as given in patent US11478477B2, “Method for treating cancer by combination of FAK/ALK/ROS1 inhibitor and EGFR inhibitor” (ASCENTAGE PHARMA (SUZHOU) CO., LTD., priority 2018, dated 2022).
Read-outs that look alike come from different tables or passages of the source. Marks after values point to notes of the source that are not given here.

Key:
NCI-H1975 tumor cells = experiment: WST (CCK-8) anti-proliferation experiment, single drugs and combinations; format: cell-based; settings: Homo sapiens, NCI-H1975, 72 hours
Procedure: Cell plating: Anti-proliferative effects were detected by a CCK-8 (Cell Counting Kit-8) assay based on water soluble tetrazolium salt (WST). The cells were seeded in 96-well plates, and only 95 μL of complete medium was added to each negative control group. 95 μL of complete medium cell suspension was added to each well to be tested, and the cell density was […]. Dosing (protection from light): In 96-well culture plates, according to the sensitivity of different cells to different drugs, the highest concentration was selected as 10 μM, and 9 concentrations were obtained by serial dilution in a ratio of 1:3.5 μL of compound was added to each well and 2-3 replicate wells were made for per concentration. After the compound was added, 96-well plates were incubated in a 5% CO2 incubator at 37° C. After 72 hours of action by using 9 different concentrations of the drug with 3 fixed doses of Compound 5, the combination effect of Compound 5 and the drug was tested. Reading: At the end of the culture, the old solution was removed from the well to be tested, and 100 μl/well CCK-8 test solution (containing 10% CCK-8, 5% FBS in the corresponding medium) was added. The plates were continuously incubated at 37° C. for 2-4 hours in a CO2 incubator. The OD values were measured using a microplate reader (SpectraMax Plus 384, Molecular Devices, LLC., US) under A450 nm. […] (O.D. of test well−O.D. of blank control well)/(O.D. of cell control well−O.D. of blank control well)×100%. IC50 values were calculated using Graphpad Prism 6.0 software for nonlinear regression data analysis method.

[1] = tested on: human NCI-H1975 lung cancer mouse xenograft tumor model; experiment: Example 4: Compound 5 with AZD9291 or afatinib in xenograft tumor model; format: in vivo; settings: for RTV on Day 15 after administration (mean ± standard error) / T/C on Day 15 after administration (%): Compound 5 100 mg/kg, AZD9291 5 then 2 mg/kg, afatinib 10 then 5 mg/kg, orally, once per day
From the text: Subsequently, a H1975 cell-derived mouse xenograft tumor model was established to evaluate the anti-tumor effects of Compound 5 in combination with EGFR inhibitor AZD9291 (osimertinib) or afatinib.

[2] = tested on: human NCI-H1975 xenograft tumor model; experiment: Example 9: Compound 5 with AZD9291 or Avitinib in xenograft tumor model; format: in vivo, mouse; settings: Compound 5 50 mg/kg, AZD9291 2 mg/kg, Avitinib 10 mg/kg, orally, once per day
From the text: (§1) The dosage regimen was as follows:

[3] = tested on: human NCI-H1975 xenograft tumor model; experiment: Example 8: Compound 5 or Ensartinib with Avitinib in xenograft tumor model; format: in vivo, mouse; settings: Compound 5 50 mg/kg; Ensartinib 20 mg/kg; Avitinib 10 mg/kg; orally, once per day, 21 days
From the text: as §1

[4] = single EGFR inhibitor, read-out: Compound B IC50

SMILES | IC50 (NCI-H1975 tumor cells; [4]) [nM] | RTV on Day 15 after administration (mean ± standard error) [1] | T/C on Day 15 after administration (%) [1] [%] | tumor after discontinuation of administration ([1]; after discontinuation of administration) | RTV on Day 11 after administration (mean ± standard error) [2] | T/C on Day 11 after administration (%) [2] | RTV on Day 15 after administration (mean ± standard error) [2] | T/C on Day 15 after administration (%) [2] [%] | T/C on Day 15 after administration (%) ([1]; listed as Afatinib) | RTV on Day 21 after administration (mean ± standard error) [3] | T/C on Day 21 after administration (%) [3] [%] | IC50 (NCI-H1975 tumor cells; single drug, read-out: Compound A IC50) [nM]
C=CC(=O)Nc1cc(Nc2nccc(-c3cn(C)c4ccccc34)n2)c(OC)cc1N(C)CCN(C)C [AZD9291, osimertinib] | 410 | 1.4 ± 0.2 | 6 | tumor rebound was gradually observed | 1.6 ± 0.3 | 1.6** % | 1.8 ± 0.2 | 16.8 |  |  |  | 
CN(C)C/C=C/C(=O)Nc1cc2c(Nc3ccc(F)c(Cl)c3)ncnc2cc1O[C@H]1CCOC1 [afatinib] | 337 | 15.5 ± 1.5 | 74 |  |  |  |  |  | 74.0 |  |  | 
C[C@@H]1CN(C(=O)c2ccc(NC(=O)c3cc(O[C@H](C)c4c(Cl)ccc(F)c4Cl)c(N)nn3)cc2)C[C@H](C)N1 [Ensartinib] |  |  |  |  |  |  |  |  |  | 9.5 ± 1.1 | 61.3 | 
C=CC(=O)Nc1cccc(Oc2nc(Nc3ccc(N4CCN(C)CC4)c(F)c3)nc3[nH]ccc23)c1 [Avitinib] |  |  |  |  | 5.9 ± 0.4 | 82.0% | 7.8 ± 0.7 | 72.4 |  | 13.29 ± 2.65 | 83.1 | 
Cc1cc(Nc2ncc(Cl)c(Nc3ccccc3S(=O)(=O)C(C)C)n2)c(OC(C)C)cc1C1=CCN(C2CCOCC2)CC1 [Compound 5, 5-chloro-N^2-(2-isopropoxy-5-methyl-4-(1-(tetrahydro-2H-pyran-4-yl)-1,2,3,6-tetrahydropyridin-4-yl)phenyl)-N^4-(2-(isopropylsulfonyl)phenyl)pyrimidine-2,4-diamine] |  | 13.8 ± 1.8 | 66.0 |  | 8.2 ± 0.5 | 113.8% | 10.3 ± 1.1 | 95.6 |  | 12.8 ± 1.5 | 80 | 3550 ± 1110
